Source: publication PMC12298827, “Subchronic Toxicities of Four Per- and Polyfluoroalkyl Substances (PFASs) by Oral Exposure in Sprague–Dawley Rats” (Toxics, 2025)

Tested on: male and female Sprague–Dawley rats
Experiment: 90-day subchronic oral gavage toxicity study
Type: in vivo, rat
Method in brief: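 Ten rats per sex per group got corn-oil gavage (3 mL/kg) at five doses or vehicle for 90 days, necropsy on SD 91. Assessed weekly weights and food intake, neurobehavior (FOB, locomotor), eyes, terminal blood panels with plasma PFAS, organ weights and H&E histology; Dunnett's test against control, two-sided 0.05.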

## C=CC(=O)OCC(F)(F)C(F)(F)C(F)(F)C(F)(F)C(F)(F)C(F)(F)C(F)(F)C(F)F [PFNAC, 1H,1H,9H-Perfluorononyl acrylate]
female, 30 mg/kg-day
  Liver/Body Weight: 3.22%
  Liver/Brain Weight: 499%
  MPV: 7.95 ± 0.58 fL
  PT: 14.44 s
  RBC: 7.067±0.364 M/µL
  Total BW change: 106.79 g
  Total Food Consumed: 1525 g
male
  BMD10, absolute kidney weight increase: 0.17 mg/kg-day
  BMD10, absolute liver weight increase: 0.09 mg/kg-day
  BMD10, relative liver weight increase: 0.15 mg/kg-day
  BMDL, absolute kidney weight increase: 0.06 mg/kg-day
  BMDL, absolute liver weight increase: 0.04 mg/kg-day
  BMDL, relative liver weight increase: 0.13 mg/kg-day
  LOEL, absolute kidney weight increase: 0.3 mg/kg-day
  LOEL, absolute liver weight increase: 0.3 mg/kg-day
  LOEL, relative kidney weight increase: 1.0 mg/kg-day
  LOEL, relative liver weight increase: 0.3 mg/kg-day
  NOEL, absolute kidney weight increase: 0.1 mg/kg-day
  NOEL, absolute liver weight increase: 0.1 mg/kg-day
  NOEL, relative kidney weight increase: 0.3 mg/kg-day
  NOEL, relative liver weight increase: 0.1 mg/kg-day
male, 0.1 mg/kg-day
  % BW Gain: 110.97%
  % Diff, % BW Gain: 9.90%
  % Diff, Total BW change: 10.47%
  % Diff, Total Food Consumed: 3.57%
  A/G: 0.90±0.08 ratio
  ABNEUT: 4.163±1.653 K/µL
  ABRETi: 193.23±33.44 10^9/L
  ABSEOS: 0.112±0.047 K/µL
  ALB: 3.60 ± 0.21 g/dL
  ALPi: 138.7±40.9 U/L
  APTT: 23.16 s
  BUN: 16.2 ± 1.6 mg/dL
  CHOL: 73.4 ± 15.5 mg/dL
  GLOB: 4.03 ± 0.29 g/dL
  GLUC: 107.6 ± 8.6 mg/dL
  HCT: 46.10±4.64%
  HGB: 14.36 ± 1.40 g/dL
  Kidney Weight: 3.14 g
  Kidney/Body Weight: 0.51%
  Kidney/Brain Weight: 141%
  Liver Weight: 14.99 g
  Liver/Body Weight: 2.41%
  Liver/Brain Weight: 673%
  MPV: 7.82 ± 0.50 fL
  PT: 15.98 s
  RBC: 8.281±0.895 M/µL
  Total BW change: 333.40 g
  Total Food Consumed: 2298 g
male, 0.3 mg/kg-day
  % BW Gain: 113.17%
  % Diff, % BW Gain: 12.08%
  % Diff, Total BW change: 12.46%
  % Diff, Total Food Consumed: 9.40%
  A/G: 0.98±0.10 ratio
  ABNEUT: 3.679±1.341 K/µL
  ABRETi: 224.66±50.41 10^9/L
  ABSEOS: 0.108±0.037 K/µL
  ALB: 3.74 ± 0.23 g/dL
  ALPi: 174.2±32.7 U/L
  APTT: 15.99 s
  BUN: 18.3 ± 1.6 mg/dL
  CHOL: 78.7 ± 16.8 mg/dL
  GLOB: 3.85 ± 0.30 g/dL
  GLUC: 112.1 ± 9.6 mg/dL
  HCT: 47.33±1.28%
  HGB: 14.69 ± 0.40 g/dL
  Kidney Weight: 3.46 g
  Kidney/Body Weight: 0.56%
  Kidney/Brain Weight: 157%
  Liver Weight: 17.52 g
  Liver/Body Weight: 2.82%
  Liver/Brain Weight: 793%
  MPV: 7.63 ± 0.44 fL
  PT: 15.10 s
  RBC: 8.282±0.259 M/µL
  Total BW change: 339.42 g
  Total Food Consumed: 2427 g
male, 1.0 mg/kg-day
  % BW Gain: 108.93%
  % Diff, % BW Gain: 7.88%
  % Diff, Total BW change: 4.36%
  % Diff, Total Food Consumed: 6.25%
  A/G: 1.11±0.09 ratio
  ABNEUT: 2.627±0.787 K/µL
  ABRETi: 186.29±26.35 10^9/L
  ABSEOS: 0.097±0.026 K/µL
  ALB: 3.99 ± 0.25 g/dL
  ALPi: 327.4±48.9 U/L
  APTT: 12.70 s
  BUN: 20.4 ± 2.6 mg/dL
  CHOL: 62.6 ± 7.6 mg/dL
  GLOB: 3.59 ± 0.18 g/dL
  GLUC: 126.1 ± 10.3 mg/dL
  HCT: 45.42±2.38%
  HGB: 13.91 ± 0.69 g/dL
  Kidney Weight: 3.57 g
  Kidney/Body Weight: 0.61%
  Kidney/Brain Weight: 164%
  Liver Weight: 20.59 g
  Liver/Body Weight: 3.48%
  Liver/Brain Weight: 949%
  MPV: 7.90 ± 0.61 fL
  PT: 15.56 s
  RBC: 8.519±0.467 M/µL
  Total BW change: 314.97 g
  Total Food Consumed: 2357 g
male, 3.0 mg/kg-day
  % BW Gain: 89.59%
  % Diff, % BW Gain: -11.27%
  % Diff, Total BW change: -11.64%
  % Diff, Total Food Consumed: 7.33%
  A/G: 1.18±0.10 ratio
  ABNEUT: 2.351±0.464 K/µL
  ABRETi: 190.46±33.42 10^9/L
  ABSEOS: 0.095±0.043 K/µL
  ALB: 4.10 ± 0.25 g/dL
  ALPi: 286.4±30.8 U/L
  APTT: 12.24 s
  BUN: 22.6 ± 3.6 mg/dL
  CHOL: 68.5 ± 12.2 mg/dL
  GLOB: 3.48 ± 0.13 g/dL
  GLUC: 126.8 ± 13.8 mg/dL
  HCT: 46.18±2.11%
  HGB: 14.09 ± 0.70 g/dL
  Kidney Weight: 3.57 g
  Kidney/Body Weight: 0.65%
  Kidney/Brain Weight: 164%
  Liver Weight: 20.96 g
  Liver/Body Weight: 3.81%
  Liver/Brain Weight: 966%
  MPV: 7.79 ± 0.43 fL
  PT: 14.98 s
  RBC: 8.351±0.354 M/µL
  Total BW change: 266.69 g
  Total Food Consumed: 2381 g
male, 10 mg/kg-day
  % BW Gain: 80.97%
  % Diff, % BW Gain: -19.80%
  % Diff, Total BW change: -20.93%
  % Diff, Total Food Consumed: 2.34%
  A/G: 1.15±0.10 ratio
  ABNEUT: 2.413±0.948 K/µL
  ABRETi: 172.74±32.27 10^9/L
  ABSEOS: 0.101±0.025 K/µL
  ALB: 3.90 ± 0.20 g/dL
  ALPi: 315.8±44.0 U/L
  APTT: 12.57 s
  BUN: 22.4 ± 2.6 mg/dL
  CHOL: 68.0 ± 15.7 mg/dL
  GLOB: 3.39 ± 0.19 g/dL
  GLUC: 122.6 ± 10.8 mg/dL
  HCT: 44.76±2.84%
  HGB: 13.84 ± 0.78 g/dL
  Kidney Weight: 3.53 g
  Kidney/Body Weight: 0.69%
  Kidney/Brain Weight: 170%
  Liver Weight: 21.12 g
  Liver/Body Weight: 4.16%
  Liver/Brain Weight: 1016%
  MPV: 7.66 ± 0.42 fL
  PT: 15.81 s
  RBC: 8.118±0.277 M/µL
  Total BW change: 238.64 g
  Total Food Consumed: 2270 g
